Assay results from patent US12077503B2, “Substituted cyclic amides and their use as herbicides” (FMC CORPORATION, priority 2015, dated 2024).

Columns and labels:
Type in all cases: in vivo
[1] = system: ivy-leaved morning glory (Ipomoea hederacea); assay: Test G Pre-Emergence Protocol; settings: Ipomoea, pre-emergence, 312 h, evaluated after 13 days; for pest or weed control at 15.625 g/ha: 15.625 g ai/ha, read-out: Morning-glory, Ivy-leaved damage rating (100=total damage to plant; 0=no damage to plant); for pest or weed control at 62.5 g/ha: 62.5 g ai/ha, 100=total damage to plant, 0=no damage to plant, read-out: plant damage rating, Morningglory, Ivy-leaved; for pest or weed control at 250 g/ha: 250 g ai/ha, read-out: Morningglory, Ivy-leaved damage rating (100=total damage to plant; 0=no damage to plant)
Method in brief: (§1)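 One day after sowing, pots are treated with a spray of test compound formulated in acetone/water 50:50 plus 0.5% Tween 20, giving 15.625, 62.5 or 250 g/ha. Evaluation on a 0–100 damage scale follows 13 days of glasshouse growth.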

[2] = system: corn (Zea mays); assay: Test G Pre-Emergence Protocol; settings: Zea mays, pre-emergence, 312 h, evaluated after 13 days; for plant injury at 15.625 g/ha: 15.625 g ai/ha; for plant injury at 15.625 g/ha / plant injury at 250 g/ha: read-out: Corn damage rating (100=total damage to plant; 0=no damage to plant); for plant injury at 62.5 g/ha: 62.5 g ai/ha, 100=total damage to plant, 0=no damage to plant, read-out: plant damage rating, Corn; for plant injury at 250 g/ha: 250 g ai/ha
Method in brief: as §1

[3] = system: velvetleaf (Abutilon theophrasti); assay: Test G Pre-Emergence Protocol; settings: Abutilon theophrasti, pre-emergence, 312 h, evaluated after 13 days; for pest or weed control at 15.625 g/ha: 15.625 g ai/ha; for pest or weed control at 15.625 g/ha / pest or weed control at 250 g/ha: read-out: Velvetleaf damage rating (100=total damage to plant; 0=no damage to plant); for pest or weed control at 62.5 g/ha: 62.5 g ai/ha, 100=total damage to plant, 0=no damage to plant, read-out: plant damage rating, Velvetleaf; for pest or weed control at 250 g/ha: 250 g ai/ha
Method in brief: as §1

[4] = system: barnyardgrass (Echinochloa crus-galli); assay: Test G Pre-Emergence Protocol; settings: Echinochloa crus-galli, pre-emergence, 312 h, evaluated after 13 days; for pest or weed control at 15.625 g/ha: 15.625 g ai/ha, read-out: Barnyard grass damage rating (100=total damage to plant; 0=no damage to plant); for pest or weed control at 62.5 g/ha: 62.5 g ai/ha, 100=total damage to plant, 0=no damage to plant, read-out: plant damage rating, Barnyardgrass; for pest or weed control at 250 g/ha: 250 g ai/ha, read-out: Barnyardgrass damage rating (100=total damage to plant; 0=no damage to plant)
Method in brief: as §1

[5] = system: giant foxtail (Setaria faberi); assay: Test G Pre-Emergence Protocol; settings: Setaria faberi, pre-emergence, 312 h, evaluated after 13 days; for pest or weed control at 15.625 g/ha: 15.625 g ai/ha; for pest or weed control at 15.625 g/ha / pest or weed control at 250 g/ha: read-out: Foxtail, Giant damage rating (100=total damage to plant; 0=no damage to plant); for pest or weed control at 62.5 g/ha: 62.5 g ai/ha, 100=total damage to plant, 0=no damage to plant, read-out: plant damage rating, Foxtail, Giant; for pest or weed control at 250 g/ha: 250 g ai/ha
Method in brief: as §1

[6] = system: redroot pigweed (Amaranthus retroflexus); assay: Test G Pre-Emergence Protocol; settings: Amaranthus retroflexus, pre-emergence, 312 h, evaluated after 13 days; for pest or weed control at 15.625 g/ha: 15.625 g ai/ha; for pest or weed control at 15.625 g/ha / pest or weed control at 250 g/ha: read-out: Pigweed, Redroot damage rating (100=total damage to plant; 0=no damage to plant); for pest or weed control at 62.5 g/ha: 62.5 g ai/ha, 100=total damage to plant, 0=no damage to plant, read-out: plant damage rating, Pigweed, Redroot; for pest or weed control at 250 g/ha: 250 g ai/ha
Method in brief: as §1

[7] = system: ivy-leaved morning glory (Ipomoea hederacea); assay: Test G Post-Emergence Protocol; settings: Ipomoea, post-emergence, 312 h; for pest or weed control at 15.625 g/ha: 15.625 g ai/ha, evaluated after 13 days (100=total damage to plant; 0=no damage to plant), read-out: Morningglory, Ivy-leaved damage rating; for pest or weed control at 62.5 g/ha: 62.5 g ai/ha, read-out: Morningglory, Ivy-leaved damage rating (100=total damage to plant; 0=no damage to plant); for pest or weed control at 62.5 g/ha / pest or weed control at 250 g/ha: evaluated after 13 days; for pest or weed control at 250 g/ha: 250 g ai/ha, read-out: damage to plant, Morningglory, Ivy-leaved (100=total damage to plant; 0=no damage to plant)
Method in brief: (§2)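 Eight days post-sowing, plants received a spray of test compound (acetone/water 50:50, 0.5% Tween 20) at 15.625, 62.5 or 250 g/ha. Glasshouse regime thereafter: 24/16 °C, 14 h light, 65% humidity. Assessment after 13 days on a 0–100 damage scale.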

[8] = system: corn (Zea mays); assay: Test G Post-Emergence Protocol; settings: Zea mays, post-emergence, 312 h; for plant injury at 15.625 g/ha: 15.625 g ai/ha, evaluated after 13 days (100=total damage to plant; 0=no damage to plant), read-out: Corn damage rating; for plant injury at 62.5 g/ha: 62.5 g ai/ha, read-out: Corn damage rating (100=total damage to plant; 0=no damage to plant); for plant injury at 62.5 g/ha / plant injury at 250 g/ha: evaluated after 13 days; for plant injury at 250 g/ha: 250 g ai/ha, read-out: damage to plant, Corn (100=total damage to plant; 0=no damage to plant)
Method in brief: as §2

[9] = system: velvetleaf (Abutilon theophrasti); assay: Test G Post-Emergence Protocol; settings: Abutilon theophrasti, post-emergence, 312 h; for pest or weed control at 15.625 g/ha: 15.625 g ai/ha, evaluated after 13 days (100=total damage to plant; 0=no damage to plant), read-out: Velvetleaf damage rating; for pest or weed control at 62.5 g/ha: 62.5 g ai/ha, read-out: Velvetleaf damage rating (100=total damage to plant; 0=no damage to plant); for pest or weed control at 62.5 g/ha / pest or weed control at 250 g/ha: evaluated after 13 days; for pest or weed control at 250 g/ha: 250 g ai/ha, read-out: damage to plant, Velvetleaf (100=total damage to plant; 0=no damage to plant)
Method in brief: as §2

[10] = system: barnyardgrass (Echinochloa crus-galli); assay: Test G Post-Emergence Protocol; settings: Echinochloa crus-galli, post-emergence, 312 h; for pest or weed control at 15.625 g/ha: 15.625 g ai/ha, evaluated after 13 days (100=total damage to plant; 0=no damage to plant), read-out: Barnyardgrass damage rating; for pest or weed control at 62.5 g/ha: 62.5 g ai/ha, read-out: Barnyardgrass damage rating (100=total damage to plant; 0=no damage to plant); for pest or weed control at 62.5 g/ha / pest or weed control at 250 g/ha: evaluated after 13 days; for pest or weed control at 250 g/ha: 250 g ai/ha, read-out: damage to plant, Barnyardgrass (100=total damage to plant; 0=no damage to plant)
Method in brief: as §2

[11] = system: giant foxtail (Setaria faberi); assay: Test G Post-Emergence Protocol; settings: Setaria faberi, post-emergence, 312 h; for pest or weed control at 15.625 g/ha: 15.625 g ai/ha, evaluated after 13 days (100=total damage to plant; 0=no damage to plant), read-out: Foxtail, Giant damage rating; for pest or weed control at 62.5 g/ha: 62.5 g ai/ha, read-out: Foxtail, Giant damage rating (100=total damage to plant; 0=no damage to plant); for pest or weed control at 62.5 g/ha / pest or weed control at 250 g/ha: evaluated after 13 days; for pest or weed control at 250 g/ha: 250 g ai/ha, read-out: damage to plant, Foxtail, Giant (100=total damage to plant; 0=no damage to plant)
Method in brief: as §2

[12] = system: redroot pigweed (Amaranthus retroflexus); assay: Test G Post-Emergence Protocol; settings: Amaranthus retroflexus, post-emergence, 312 h; for pest or weed control at 15.625 g/ha: 15.625 g ai/ha, evaluated after 13 days (100=total damage to plant; 0=no damage to plant), read-out: Pigweed, Redroot damage rating; for pest or weed control at 62.5 g/ha: 62.5 g ai/ha, read-out: Pigweed, Redroot damage rating (100=total damage to plant; 0=no damage to plant); for pest or weed control at 62.5 g/ha / pest or weed control at 250 g/ha: evaluated after 13 days; for pest or weed control at 250 g/ha: 250 g ai/ha, read-out: damage to plant, Pigweed, Redroot (100=total damage to plant; 0=no damage to plant)
Method in brief: as §2

Row | Structure (SMILES) | pest or weed control at 15.625 g/ha [1] | pest or weed control at 62.5 g/ha [1] | pest or weed control at 250 g/ha [1] | plant injury at 15.625 g/ha [2] | plant injury at 62.5 g/ha [2] | plant injury at 250 g/ha [2] | pest or weed control at 15.625 g/ha [3] | pest or weed control at 62.5 g/ha [3] | pest or weed control at 250 g/ha [3] | pest or weed control at 15.625 g/ha [4] | pest or weed control at 62.5 g/ha [4] | pest or weed control at 250 g/ha [4] | pest or weed control at 15.625 g/ha [5] | pest or weed control at 62.5 g/ha [5] | pest or weed control at 250 g/ha [5] | pest or weed control at 15.625 g/ha [6] | pest or weed control at 62.5 g/ha [6] | pest or weed control at 250 g/ha [6] | pest or weed control at 15.625 g/ha [7] | pest or weed control at 62.5 g/ha [7] | also measured
1 | CN1C[C@@H](c2ccc(C(F)(F)F)cc2)[C@H](C(=O)Nc2cncc(Cl)n2)C1=O (racemic) [Compound 1574] | 0% | 0% | 0% | 0% | 0% | 0% | 0% | 0% | 0% | 0% | 0% | 60% | 0% | 0% | 70% | 0% | 0% | 30% | 0% | 0% | pest or weed control at 250 g/ha [7]: 40%; plant injury at 15.625 g/ha [8]: 0%; plant injury at 62.5 g/ha [8]: 0%; plant injury at 250 g/ha [8]: 0%; pest or weed control at 15.625 g/ha [9]: 0%; pest or weed control at 62.5 g/ha [9]: 0%; pest or weed control at 250 g/ha [9]: 0%; pest or weed control at 15.625 g/ha [10]: 0%; pest or weed control at 62.5 g/ha [10]: 0%; pest or weed control at 250 g/ha [10]: 40%; pest or weed control at 15.625 g/ha [11]: 0%; pest or weed control at 62.5 g/ha [11]: 0%; pest or weed control at 250 g/ha [11]: 60%; pest or weed control at 15.625 g/ha [12]: 0%; pest or weed control at 62.5 g/ha [12]: 0%; pest or weed control at 250 g/ha [12]: 0%
2 | COc1cccc(NC(=O)[C@@H]2C(=O)N(C)C[C@H]2c2ccc(C(F)(F)F)cc2)n1 (racemic) [Compound 1601] | 0% | 0% | 0% | 0% | 0% | 0% | 0% | 0% | 0% | 0% | 10% | 70% | 0% | 20% | 80% | 0% | 0% | 50% | 0% | 10% | pest or weed control at 250 g/ha [7]: 30%; plant injury at 15.625 g/ha [8]: 0%; plant injury at 62.5 g/ha [8]: 10%; plant injury at 250 g/ha [8]: 30%; pest or weed control at 15.625 g/ha [9]: 0%; pest or weed control at 62.5 g/ha [9]: 20%; pest or weed control at 250 g/ha [9]: 50%; pest or weed control at 15.625 g/ha [10]: 0%; pest or weed control at 62.5 g/ha [10]: 40%; pest or weed control at 250 g/ha [10]: 70%; pest or weed control at 15.625 g/ha [11]: 0%; pest or weed control at 62.5 g/ha [11]: 80%; pest or weed control at 250 g/ha [11]: 70%; pest or weed control at 15.625 g/ha [12]: 0%; pest or weed control at 62.5 g/ha [12]: 10%; pest or weed control at 250 g/ha [12]: 30%
